Tests used:
[1] = tested on: polymorphonuclear leukocyte infiltration (myeloperoxidase activity); assay: Myeloperoxidase (MPO) activity assay in hippocampus and neocortex after MCA-O and reperfusion; assay type: in vivo, mouse; details: 0.4 μg over 48 h cerebroventricular perfusion; 1 h MCA-O, 48 h reperfusion
Protocol: Middle Cerebral Artery Occlusion (MCA-O) and reperfusion. Experimental protocols were reviewed and approved by the Institutional Animal Care and Use Committee of Louisiana State University Health Sciences Center, New Orleans. Mice (20-25 g body wt) were induced with 2% isoflurane in a mixture of 70% nitrous oxide and 30% oxygen. Anesthesia was maintained with 1% isoflurane. Temperature was maintained at 36.5-37.5° C. using a Harvard homeothermic blanket. P 10 polyethylene catheters were placed in the femoral artery and vein, and the blood pressure was monitored. Arterial blood was analyzed for PO2, PCO2, and pH after 1 h of ischemia and 30 min after the onset of reperfusion. The common carotid and external carotid arteries were temporarily ligated with a retracting suture, and the external carotid artery was dissected just proximal to its bifurcation. The occluding filament was introduced from the external carotid artery and advanced to the internal carotid artery. The AVM micro clip was removed. The filament was advanced so that the blunted tip lay in the anterior cerebral artery and the side of the filament occluded the origin of the middle cerebral artery (MCA). The stump of the external carotid artery was ligated, and tension on the retracting suture to the common carotid artery was gently released, restoring blood flow to the carotid system.
Occlusion of the middle cerebral artery (MCA-O) was maintained for 1 h; reperfusion was then established by delicate retrieval of the occluding suture from the arterial lumen, restoring blood flow to the region of the MCA. The mice were then killed, and the hippocampus and brain cortex rapidly dissected and frozen. Samples were kept at −80° C. until analysis. In some experiments, aspirin (7.5 mg/kg) was administered by gavage 15 min before MCA-O.
Polymorphonuclear leukocyte infiltration measurement by the myeloperoxidase (MPO) assay. Inhibition of leukocyte infiltration by 10,17S-docosatriene (NPD1) or docosahexaenoic acid (DHA) was measured in mouse hippocampus and neocortex after 1 h of middle cerebral artery occlusion (MCA-O) and 48 h of reperfusion. Lipids were delivered for each experiment by perfusion (250 nl/h) through Alzet minipumps implanted into the third ventricle. Hippocampus and neocortex from the ipsilateral (MCA-O-reperfusion) and contralateral sides were rapidly dissected. Brain samples were assayed for myeloperoxidase activity as described in Huang, J., Choudhri, T. F., Winfree, C. J., McTaggart, R. A., Kiss, S., Mocco, J., Kim, L. J., Protopsaltis, T. S., Zhang, Y., Pinsky, D. J., and Connolly Jr., E. S. (2000) Stroke 31, 3047-3053. Briefly, brain tissues were homogenized in 10 mM phosphate buffer (pH 7.4), then frozen and thawed with liquid N2 followed by sonication. Samples were precipitated at 10,000×g for 10 min, then aliquots of supernatants were added to 10 mM phosphate buffer (pH 6.0) and a substrate solution containing o-dianisidine (Sigma; St. Louis, Mo.) and 0.025% hydrogen peroxide, and finally incubated at 37° C. for 45 min. Spectrophotometric detection was obtained at 460 nm.

COX-2 mRNA = COX-2 mRNA in IL-1β-exposed human neural progenitor cells; assay type: cell-based; details: p<0.05
Protocol: Human neural (HN) progenitor cells in primary culture. HN cells were grown to ˜70% confluence (˜50,000 cells per 3.5-cm diameter well) in 6-well COSTAR plates at 37° C., 5% CO2/20% O2/75% N2 in humidified air at 1 atm (normoxic conditions) in NPMM medium (Clonetics CC-4241) supplemented with hFGF, NSF-1, hEGF, GA-1000, as described by the manufacturer (Clonetics, Walkersville, Md.). HN cells tested negative for HIV-1, hepatitis B and C, mycoplasma, bacteria, yeast, and fungi, and positive for the glial and neuronal markers GFAP, MAP2, and β-tubulin III (Clonetics). After two weeks of development, HN cells were exposed to human recombinant interleukin 1-beta (IL-1β) (10 ng/ml) for 3 h in the presence or absence of 0.03, 0.3, 3.0, 30, and 300 nM 10,17S-docosatriene (NPD1), DHA, or PBS pH 7.4 (control). RNA and protein were quickly isolated using Trizol Reagent (Invitrogen, Carlsbad, Calif.) and stored at −81° C. within minutes of isolation.
COX-2 RNA abundance in hippocampus and HN cells. Abundance of human-specific COX-1 and COX-2 RNA message was assayed using RT-PCR as described in Bazan, N. G., and Lukiw, W. J. (2002) J. Biol. Chem. 277, 30359-30367.

TNFα gene expression = assay: HGU133 GeneChip DNA array in HN cells: TNFα; assay type: cell-based, human; details: Aβ42 25 μM, DHA 50 nM or NPD1 50 nM, 18 h, nsc = no significant change
caspase-3 = assay: Caspase-3 cleavage analysis by Western blot (PARP); assay type: cell-based, human; details: NPD1 50 nM added with TNFα/H2O2, 6-8 h; TNFα/H2O2 alone 80.8%
Protocol: Caspase-3 cleavage analysis: Caspase-3 cleavage was evaluated by Western-blot analysis after using PARP as substrate. Briefly, 20 μg equivalent of each cell extract was electrophoresed on an 8-16% gel (Promega, Madison, Wis.) for 2 h at 125 volts. The proteins were transferred onto nitrocellulose membranes as before, and probed with PARP antibody (Santa Cruz Biotechnology, Santa Cruz, Calif.). The degradation of PARP was evaluated using ECL kit.
Effector caspase-3, downstream of pro- and anti-apoptotic proteins, is activated as a consequence of mitochondrial cytochrome c release into the cytoplasm and activation of the apoptosome. ARPE-19 cells were serum-starved for 1 h prior to a 6- to 8-h treatment with TNF-α (10 ng)+H2O2 (either 400 or 800 μM as indicated) in the presence or absence of NPD1 (50 nM). In FIG. 15A, caspase-3 cleavage was detected by Western-blot analysis using PARP (Santa Cruz Biotech.) as antibody. […] In ARPE-19 cells, caspase-3-induced cleavage using endogenous substrate occurred when TNFα/H2O2-triggered oxidative stress was present, as indicated by increased PARP accumulation (an 80.8% increase compared to the control; FIG. 15A).

`CC/C=C\C[C@H](O)\C=C/C=C/C=C/[C@H](O)C/C=C\C/C=C\CCC(=O)O` [NPD1, 10,17S-docosatriene] was tested, and the “inhibition of ipsilateral myeloperoxidase activity, cortex” value [1] was 99%, the “inhibition of ipsilateral myeloperoxidase activity, hippocampus” value [1] was 80% and the “effect on IL-1β-induced expression of COX-2 mRNA” value (COX-2 mRNA) was “inhibited”. The “TNFα gene expression, fold change over untreated controls” value (TNFα gene expression) was “nsc” and the “PARP accumulation (caspase-3 activation), increase compared to the control” value (caspase-3) was 18.3%.

— patent US20050075398A1, “Neuroprotectin D1 protects against cellular apoptosis, stroke damage, alzheimer's disease and retinal diseases” (priority 2003, published 2005)
